In patent US20180228743A1, “COMPOUNDS AND METHODS OF PROMOTING MYELINATION” (Case Western Reserve University, priority 2016, published 2018):
Where a name gives a salt, the structure may show the parent alone. Read-outs that look alike come from different tables or passages of the source.

Assays:
EpiSC-derived OPCs [1] = assay: High-throughput screening of 3,000 bioactive small molecules for MBP+ oligodendrocyte formation from OPCs; format: cell-based, mouse; details: 72 h; for % 0ligos: MBP+ oligodendrocytes; for fold induction at 2 µM: Mus musculus, read-out: fold-change in % MBP + oligodendrocytes
Source text: Plates were imaged on the Operetta High Content Imaging and Analysis system (PerkinElmer) and a set of 6 fields captured from each well resulting in an average of 1200 cells being scored per well. Analysis (PerkinElmer Harmony and Columbus software) began by identifying intact nuclei stained by DAPI; that is, those traced nuclei that were larger than 300 μm^2 in surface area. Each traced nucleus region was then expanded by 50% and cross-referenced with the […] (MBP) stain to identify oligodendrocyte nuclei, and from this the percentage of oligodendrocytes was calculated. In some experiments, the total process length of MBP+ oligodendrocytes was calculated as previously described.
EpiSC-derived OPCs were grown and expanded in poly-ornithine and laminin-coated flasks before harvesting for plating. Cells were dispensed in differentiation media supplemented with Noggin (R&D Systems; 100 ng/ml), Neurotrophin 3 (R&D Systems; 10 ng/ml), cAMP (Sigma; 50 μM), and IGF-1 (R&D Systems; 100 ng/ml)) using a Biotek EL406 Microplate Washer Dispenser (Biotek) equipped with 5 μL dispense cassette (Biotek), into poly-D-lysine/laminin (Sigma, L2020; 4 μg/ml)-coated sterile, 384-well, CellCarrier ultra plates (PerkinElmer), to a final density of 12,500 cells per well and allowed to attach for 45 min before addition of drug. A 3 mM stock of bioactive compound library in dimethylsulphoxide (DMSO) were prepared in an Abgene storage 384-well plate (ThermoFisher Scientific; AB1055). These were added to assay plates using a 50 nL solid pin tool attached to Janus automated workstation (Perkin Elmer), resulting in a final screening concentration of 2 μM. Cells were incubated at 37° C. for 1 hour and then T3 (Sigma; 40 ng/ml) was added to all wells except negative controls, to which FGF (20 ng/ml) was added instead. Negative controls and T3-alone were included in each assay plate. After incubation at 37° C. for 72 h, cells were fixed, washed and stained similar to 96-well OPC assay protocol, although all the washing steps were performed using a Biotek EL406 Microplate Washer Dispenser (Biotek) equipped with a 96-well aspiration manifold. Cells were stained with DAPI (Sigma; 1 μg/ml) and MBP antibody (Abcam, ab7349; 1:100). Plates were imaged on the Operetta High Content Imaging and Analysis system (PerkinElmer) and a set of 4 fields captured from each well resulting in an average of 700 cells being scored per well. Analysis was performed as in High-Content Imaging and Analysis, above. All plates for the primary screen were processed and analyzed simultaneously to minimize variability. Molecules causing more than 20% reduction in nuclear count relative to DMSO control wells were removed from consideration, and hits were called on the basis of largest fold-increase in percentage of MBP+ oligodendrocytes relative to DMSO controls within the same plate.

EpiSC-derived OPCs [2] = assay: In vitro phenotypic screening of OPCs (MBP+ oligodendrocytes at 72 h); format: cell-based, mouse; details: 72 h
OPCs = assay: GC/MS-based sterol profiling in OPCs; format: cell-based, mouse; details: for sterol levels / sterol intermediate accumulation in OPCs: 24 h treatment (siRNA 96 h)
rat CYP51 = molecular target: T1, rat CYP51 (Rattus norvegicus, UniProt Q64654); assay: CYP51 enzymatic assay (LC/MS quantitation of FF-MAS); format: biochemical
T1 construct: purchased Cypex, Inc
T1 sequence (Q64654 1-503): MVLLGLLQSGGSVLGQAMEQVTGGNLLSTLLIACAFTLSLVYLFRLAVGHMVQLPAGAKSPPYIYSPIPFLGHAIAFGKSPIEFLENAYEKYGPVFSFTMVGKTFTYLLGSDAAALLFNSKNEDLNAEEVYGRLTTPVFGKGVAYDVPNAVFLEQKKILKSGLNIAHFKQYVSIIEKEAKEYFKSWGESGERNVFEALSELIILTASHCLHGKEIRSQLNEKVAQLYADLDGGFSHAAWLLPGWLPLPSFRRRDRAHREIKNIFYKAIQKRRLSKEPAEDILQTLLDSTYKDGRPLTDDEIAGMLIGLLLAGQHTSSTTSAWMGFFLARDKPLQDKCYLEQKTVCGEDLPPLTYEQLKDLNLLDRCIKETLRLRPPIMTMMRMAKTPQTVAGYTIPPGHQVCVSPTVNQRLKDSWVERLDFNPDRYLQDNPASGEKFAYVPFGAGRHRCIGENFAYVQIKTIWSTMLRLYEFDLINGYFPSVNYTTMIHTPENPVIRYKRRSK
Experimental: Finally, 15 μl of each reaction/isopropanol mixture was injected onto a SCIEX Triple Quad 6500 LC-MS/MS system using an APCI ion source in positive ion mode with a Shimadzu UFLC-20AD HPLC and a Phenomenex

[3] = 2 μM, relative to DMSO controls of the same plate
[4] = 2 μM, hydrochloride monohydrate

| Compound | cell viability (% relative to DMS0) (EpiSC-derived OPCs [1]; 2 μM) [%] | % 0ligos (EpiSC-derived OPCs [1]; 2 μM) [%] | fold induction at 2 µM (EpiSC-derived OPCs [1]; [3]) | other results |
| --- | --- | --- | --- | --- |
| Clc1ccc(C(Cn2ccnc2)OCc2csc3c(Cl)cccc23)c(Cl)c1 (stereo not drawn) [Sertaconazole nitrate] | 134.49 | 39.38 | 5.23 | – |
| Cl.Clc1ccc(N2CCN(Cc3c[nH]c4ncccc34)CC2)cc1 [L-745,870 hydrochloride] | – | 32.61 | – | – |
| CC(C)CCC[C@@H](C)[C@H]1CC[C@H]2[C@@H]3CC=C4C[C@@H](O)CC[C@]4(C)[C@H]3CC[C@]12C [cholesterol, Cholesterol] | – | – | – | formation of MBP+ oligodendrocytes from OPCs (EpiSC-derived OPCs [2]): ineffective |
| CC(C)CCC[C@@H](C)[C@H]1CC=C2C3=C(CC[C@@]21C)[C@@]1(C)CCC(O)CC1CC3 (stereo partly drawn) [14-dehydrozymostenol, cholesta-8,14-dien-3-ol] | – | – | – | formation of MBP+ oligodendrocytes from OPCs (EpiSC-derived OPCs [2]): enhanced the formation of MBP+ oligodendrocytes |
| N[C@@H](Cc1cc(I)c(Oc2ccc(O)c(I)c2)c(I)c1)C(=O)O [liothyronine, Liothyronine] | – | – | – | sterol levels / sterol intermediate accumulation in OPCs (OPCs): minimal effects on sterol levels |
| Clc1ccc(C(Cn2ccnc2)OCc2ccc(Sc3ccccc3)cc2)c(Cl)c1 (stereo not drawn) [Fenticonazole Nitrate] | 103.63 | 35.66 | 4 | – |
| c1ccc(-c2ccc(C(c3ccccc3)n3ccnc3)cc2)cc1 (stereo not drawn) [Bifonazole] | 123.69 | 40.98 | 4.59 | – |
| O=C1Cc2cc(CCN3CCN(c4nsc5ccccc45)CC3)c(Cl)cc2N1 [Ziprasidone hydrochloride monohydrate] | – | – | – | % 0ligos (EpiSC-derived OPCs [1]; [4]): 32.78%; fold-change in % MBP + oligodendrocytes (EpiSC-derived OPCs [1]; 2 μM, relative to DMSO controls of the same plate, hydrochloride monohydrate): 3.71; cell viability (% relative to DMS0) (EpiSC-derived OPCs [1]; [4]): 116.11% |
| OC(Cn1cncn1)(Cn1cncn1)c1ccc(F)cc1F [fluconazole, Fluconazole] | – | – | – | inhibition of mammalian CYP51 in vitro (rat CYP51): did not inhibit mammalian CYP51 in vitro |
| Cc1nnc(C(=O)NC(C)(C)c2nc(C(=O)NCc3ccc(F)cc3)c(O)c(=O)n2C)o1 [Raltegravir (MK-0518), Raltegravir] | 115.85 | 38.02 | – | fold induction at 2 µM (EpiSC-derived OPCs [1]): 4.26 |
| CC(C)CCC[C@@H](C)[C@H]1CC[C@H]2C3=C(CC[C@]12C)[C@@]1(C)CC[C@H](O)C[C@@H]1CC3 [zymostenol, Zymostenol] | – | – | – | formation of MBP+ oligodendrocytes from OPCs (EpiSC-derived OPCs [2]): enhanced the formation of MBP+ oligodendrocytes |
| O=C1Cc2cc(CCN3CCN(c4nsc5ccccc45)CC3)c(Cl)cc2N1 [Ziprasidone HCl] | – | – | 4.68 | % 0ligos (EpiSC-derived OPCs [1]; 2 μM, HCl): 34.10%; cell viability (% relative to DMS0) (EpiSC-derived OPCs [1]; 2 μM, HCl): 147.64% |
| Cl.O[Si](CCCN1CCCCC1)(c1ccc(F)cc1)C1CCCCC1 (stereo not drawn) [Hexahydro-sila-difenidol hydrochloride, p-fluoro analog] | – | 26.76 | – | fold-change in % MBP + oligodendrocytes (EpiSC-derived OPCs [1]; [3]): 3.49 |
| CCc1nc(N)nc(N)c1-c1ccc(Cl)cc1 [Pyrimethamine] | 91.11 | 43.87 | 4.92 | – |
| CC(=O)N1CCN(c2ccc(OC[C@H]3CO[C@@](Cn4ccnc4)(c4ccc(Cl)cc4Cl)O3)cc2)CC1 (stereo in doubt) [S-trans-Ketoconazole] | – | – | – | inhibition of mammalian CYP51 in vitro (rat CYP51): strikingly less effective at inhibiting mammalian CYP51 |
| CC(C)=CCC[C@@H](C)[C@H]1CC[C@@]2(C)C3=C(CC[C@]12C)[C@@]1(C)CC[C@H](O)C(C)(C)[C@@H]1CC3 [lanosterol, Lanosterol] | – | – | – | formation of MBP+ oligodendrocytes from OPCs (EpiSC-derived OPCs [2]): enhanced formation of MBP+ oligodendrocytes in a dose-responsive fashion |
| Cc1cc(Nc2cc(CN3CCOCC3)c3nc(C)c(Cc4ccc(Cl)cc4F)n3n2)n[nH]1 [LY2784544] | 87.93 | 28.75 | 3.62 | – |

| Compound | cell viability (% relative to DMS0) (EpiSC-derived OPCs [1]; 2 μM) [%] | % 0ligos (EpiSC-derived OPCs [1]; 2 μM) [%] | fold induction at 2 µM (EpiSC-derived OPCs [1]; [3]) | other results |
| --- | --- | --- | --- | --- |
| (±)-Vesamicol | 112.02 | 34.23 | – | fold-change in % MBP + oligodendrocytes (EpiSC-derived OPCs [1]; [3]): 3.87 |
| O=C(c1ccc(OCCN2CCCCC2)cc1)c1c(-c2ccc(O)cc2)sc2cc(O)ccc12 [Raloxifene HCl] | – | – | 4.8 | cell viability (% relative to DMS0) (EpiSC-derived OPCs [1]; 2 μM, HCl): 114.37%; cell viability (% relative to DMS0) (EpiSC-derived OPCs [1]; 2 μM, listed as Raloxifene hydrochloride, HCl): 126.07% |
| C[C@]12CC[C@@H]3c4ccc(O)cc4C[C@@H](CCCCCCCCC[S+]([O-])CCCC(F)(F)C(F)(F)F)[C@H]3[C@@H]1CC[C@@H]2O (stereo partly drawn) [Fulvestrant] | 139.42 | 18.21 | 3.83 | enzyme inhibited in OPCs as indicated by sterol profile (OPCs; 24 h): targeted CYP51 |
| C=C(c1ccc(C(=O)O)cc1)c1cc2c(cc1C)C(C)(C)CCC2(C)C [bexarotene, Bexarotene] | – | – | – | sterol levels / sterol intermediate accumulation in OPCs (OPCs): minimal effects on sterol levels |
| N=C(N)c1ccc(OCCCCCOc2ccc(C(=N)N)cc2)cc1 [Pentamidine isethionate] | 108.75 | 41.29 | 4.42 | – |
| Clc1ccc(CSC(Cn2ccnc2)c2ccc(Cl)cc2Cl)cc1 (stereo not drawn) [Sulconazole Nitrate] | 104.84 | 37.57 | 4.44 | – |
| lsoconazole nitrate | – | 53.25 | – | fold-change in % MBP + oligodendrocytes (EpiSC-derived OPCs [1]; [3]): 6.70 |
| Clc1ccc(CCC(Cn2ccnc2)Sc2c(Cl)cccc2Cl)cc1 (stereo not drawn) [Butoconazole nitrate] | 122.03 | 46.85 | 5.25 | – |
| Cc1cc(NC(=O)Nc2ccc(N(C)C)cc2)c2cc(F)cc(F)c2n1 [SB408124] | 106.19 | 39.63 | – | fold-change in % MBP + oligodendrocytes (EpiSC-derived OPCs [1]; [3]): 4.44 |
| CCN(CC)CCCCCCCCOC(=O)c1cc(OC)c(OC)c(OC)c1.Cl [TMB-8 hydrochloride] | 139.42 | 18.47 | – | fold-change in % MBP + oligodendrocytes (EpiSC-derived OPCs [1]; [3]): 3.89 |
| Varenicline tartrate | 144.02 | 22.86 | – | fold-change in % MBP + oligodendrocytes (EpiSC-derived OPCs [1]; [3]): 4.81 |
| FC(F)(F)c1ccc(/C=C/c2nc(COc3ccc(CCCCn4ccnn4)cc3)co2)cc1 [Mubritinib (TAK 165), Mubritinib] | 142.71 | 31.45 | 3.95 | – |
| CCCCOc1ccc(OCCCN2CCOCC2)cc1 [Pramoxine HCl] | 113.08 | 32.98 | 3.89 | – |
| CN1CCC[C@@H]1CCO[C@](C)(c1ccccc1)c1ccc(Cl)cc1 [Clemastine fumarate] | – | 20.49 | – | sterol levels / sterol intermediate accumulation in OPCs (OPCs): induced accumulation of zymostenol and zymosterol and decreased basal sterol levels; oligodendrocyte formation in combination with ketoconazole (EpiSC-derived OPCs [2]; ketoconazole 2.5 μM (maximally effective dose)): did not enhance differentiation above levels seen for ketoconazole alone |
| O=C(C1CCCCC1)N1CC(=O)N2CCc3ccccc3C2C1 (stereo not drawn) [Praziquantel] | 109.81 | 33.24 | 3.72 | – |
| CC(=O)N1CCN(c2ccc(OC[C@@H]3CO[C@](Cn4ccnc4)(c4ccc(Cl)cc4Cl)O3)cc2)CC1 (stereo in doubt) [R-trans-Ketoconazole] | – | – | – | inhibition of mammalian CYP51 in vitro (rat CYP51): strikingly less effective at inhibiting mammalian CYP51 |
